The test system of data set [1] is human diffuse large B-cell lymphoma cells (Karpas 422 cell). As to the kind of experiment: Karpas 422 cell proliferation, Calcein AM staining. It is filed as cell-based. The note with it: Homo sapiens, KARPAS-422; data of 14th day; read-out: Karpas422 Proliferation IC50 Nanomoles per Liter.
For data set [2], the system named is human diffuse large cell lymphoma B lymphocytes (Pfeiffer cell). As to the kind of experiment: Pharmacodynamic experiment, Pfeiffer transplanted tumor model in mice. It is filed as in vivo, mice (beige SCID). The note with it: intragastrically, once a day for 21 days; for inhibition in vivo at 100 mg/kg: Mus musculus, Pfeiffer, po, 504 h, read-out: inhibited tumor growth.
Excerpt: Under sterile conditions, human diffuse large cell lymphoma B lymphocytes (Pfeiffer cell) in logarithmic growth stage were digested and mixed with Matrigel and transplanted subcutaneously on the right back of mice (beige SCID) with severe combined immunodeficiency disease.

Data set [3] shares this test system. The data set can be described thus: Pfeiffer cell proliferation, Calcein AM staining. It is filed as cell-based. The note with it: Homo sapiens, Pfeiffer; data of 14th day; read-out: Pfeiffer Proliferation IC50 Nanomoles per Liter.
Excerpt: The diffuse large cell lymphoma B lymphocytes (Pfeiffer cells) were collected and counted when growing well.
Another data set has as its target Mutant type EZH2(A677G) (Homo sapiens (Human), UniProt Q15910, A677G). The data set can be described thus: AlphaLISA, mutant type PRC2 complex EZH2(A677G). The format is biochemical. The following applies: read-out: Mutant type EZH2(A677G) IC59 Nanomoles per Liter. (In general: Bead proximity is the source of the signal in Alpha formats.)
In the next data set the target is wild-type EZH2 (Homo sapiens (Human), UniProt Q15910). The data set can be described thus: radiometric assay, activity to wild-type EZH2 of PRC2.
Chain of wild-type EZH2 (Q15910 whole entry): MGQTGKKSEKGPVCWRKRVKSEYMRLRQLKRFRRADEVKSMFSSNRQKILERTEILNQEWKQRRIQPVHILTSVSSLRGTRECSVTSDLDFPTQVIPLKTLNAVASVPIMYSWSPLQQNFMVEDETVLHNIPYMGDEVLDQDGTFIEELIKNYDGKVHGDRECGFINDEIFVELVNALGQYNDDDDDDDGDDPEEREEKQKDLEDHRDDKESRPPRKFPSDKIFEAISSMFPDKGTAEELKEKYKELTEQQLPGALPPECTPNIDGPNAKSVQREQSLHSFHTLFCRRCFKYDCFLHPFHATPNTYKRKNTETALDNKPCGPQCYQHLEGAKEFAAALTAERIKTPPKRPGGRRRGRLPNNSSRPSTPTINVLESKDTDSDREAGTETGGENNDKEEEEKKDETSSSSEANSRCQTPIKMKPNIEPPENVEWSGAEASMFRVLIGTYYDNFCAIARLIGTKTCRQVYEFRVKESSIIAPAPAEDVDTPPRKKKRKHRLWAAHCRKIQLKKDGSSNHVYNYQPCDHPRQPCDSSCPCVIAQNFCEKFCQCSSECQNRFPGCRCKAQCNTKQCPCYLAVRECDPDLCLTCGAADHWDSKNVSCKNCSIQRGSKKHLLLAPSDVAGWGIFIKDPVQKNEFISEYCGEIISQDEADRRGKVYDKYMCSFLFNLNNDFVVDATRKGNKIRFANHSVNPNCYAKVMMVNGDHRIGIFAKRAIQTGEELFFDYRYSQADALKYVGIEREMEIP
Chain of wild-type EZH2 (O75530 whole entry partner): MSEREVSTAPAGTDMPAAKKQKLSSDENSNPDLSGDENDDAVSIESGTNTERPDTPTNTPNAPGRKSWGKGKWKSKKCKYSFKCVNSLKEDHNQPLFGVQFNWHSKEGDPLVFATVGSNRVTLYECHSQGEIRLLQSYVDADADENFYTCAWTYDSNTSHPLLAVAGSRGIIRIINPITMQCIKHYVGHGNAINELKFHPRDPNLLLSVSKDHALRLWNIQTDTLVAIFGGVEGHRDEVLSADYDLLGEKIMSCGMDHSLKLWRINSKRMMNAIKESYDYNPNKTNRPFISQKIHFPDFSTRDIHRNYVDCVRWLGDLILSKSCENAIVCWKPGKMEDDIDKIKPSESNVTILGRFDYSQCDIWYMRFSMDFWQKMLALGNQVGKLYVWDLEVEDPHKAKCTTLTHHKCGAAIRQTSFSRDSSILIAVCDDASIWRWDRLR
Chain of wild-type EZH2 (Q15022 whole entry partner): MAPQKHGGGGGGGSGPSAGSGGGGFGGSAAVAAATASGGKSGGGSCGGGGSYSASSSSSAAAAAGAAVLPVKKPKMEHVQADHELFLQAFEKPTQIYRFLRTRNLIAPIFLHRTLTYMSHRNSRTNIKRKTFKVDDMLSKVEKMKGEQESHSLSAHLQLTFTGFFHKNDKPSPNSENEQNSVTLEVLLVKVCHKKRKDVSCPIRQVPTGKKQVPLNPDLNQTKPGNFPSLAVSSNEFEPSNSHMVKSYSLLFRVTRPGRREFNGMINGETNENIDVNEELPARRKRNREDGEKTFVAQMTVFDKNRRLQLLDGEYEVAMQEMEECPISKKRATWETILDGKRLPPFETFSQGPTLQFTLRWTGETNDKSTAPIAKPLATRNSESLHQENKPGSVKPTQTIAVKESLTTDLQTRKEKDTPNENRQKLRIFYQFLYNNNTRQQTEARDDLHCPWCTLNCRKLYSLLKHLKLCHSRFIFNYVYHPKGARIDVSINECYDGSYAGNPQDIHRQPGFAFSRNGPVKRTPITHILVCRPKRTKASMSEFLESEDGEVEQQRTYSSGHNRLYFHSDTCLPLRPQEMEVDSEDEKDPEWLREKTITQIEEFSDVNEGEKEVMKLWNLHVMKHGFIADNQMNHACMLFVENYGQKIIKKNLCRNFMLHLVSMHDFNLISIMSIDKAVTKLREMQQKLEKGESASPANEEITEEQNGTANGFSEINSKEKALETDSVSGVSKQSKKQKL
Data set [4] can be described thus: Pharmacokinetic experiment in rats. It is filed as in vivo, SD rats. The procedure: A certain amount of compound was weighted and dissolved in 0.1% Tween under vortex and ultrasound, and 0.5% carboxymethyl cellulose sodium (CMC-NA) solution was added to form a uniform solution.
The next data set deals with Mutant type EZH2(Y641F) (Homo sapiens (Human), UniProt Q15910, Y641F). The data set can be described thus: AlphaLISA, mutant type PRC2 complex EZH2(Y641F). It is filed as biochemical. The note with it: read-out: Mutant type EZH2(Y641F) IC50 Nanomoles per Liter.
Chain of Mutant type EZH2(Y641F) (Q15910 whole entry Y641F): as the sequence (Q15910 whole entry) above, with Y641F counted along it
Chain of Mutant type EZH2(Y641F) (O75530 whole entry partner): as the sequence (O75530 whole entry partner) above
Chain of Mutant type EZH2(Y641F) (Q15022 whole entry partner): as the sequence (Q15022 whole entry partner) above
Chain of Mutant type EZH2(Y641F) (Q09028 whole entry partner): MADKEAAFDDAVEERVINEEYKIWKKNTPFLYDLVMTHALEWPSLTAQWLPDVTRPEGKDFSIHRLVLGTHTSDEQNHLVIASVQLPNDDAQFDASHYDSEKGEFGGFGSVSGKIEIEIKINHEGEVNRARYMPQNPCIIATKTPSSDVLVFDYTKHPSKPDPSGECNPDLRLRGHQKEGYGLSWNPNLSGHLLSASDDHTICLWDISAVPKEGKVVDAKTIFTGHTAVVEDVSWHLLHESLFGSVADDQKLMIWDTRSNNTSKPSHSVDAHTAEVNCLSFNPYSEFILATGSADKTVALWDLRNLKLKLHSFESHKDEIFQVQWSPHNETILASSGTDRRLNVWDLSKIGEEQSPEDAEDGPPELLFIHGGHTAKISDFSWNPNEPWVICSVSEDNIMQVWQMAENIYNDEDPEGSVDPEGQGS
Chain of Mutant type EZH2(Y641F) (Q6ZN18 whole entry partner): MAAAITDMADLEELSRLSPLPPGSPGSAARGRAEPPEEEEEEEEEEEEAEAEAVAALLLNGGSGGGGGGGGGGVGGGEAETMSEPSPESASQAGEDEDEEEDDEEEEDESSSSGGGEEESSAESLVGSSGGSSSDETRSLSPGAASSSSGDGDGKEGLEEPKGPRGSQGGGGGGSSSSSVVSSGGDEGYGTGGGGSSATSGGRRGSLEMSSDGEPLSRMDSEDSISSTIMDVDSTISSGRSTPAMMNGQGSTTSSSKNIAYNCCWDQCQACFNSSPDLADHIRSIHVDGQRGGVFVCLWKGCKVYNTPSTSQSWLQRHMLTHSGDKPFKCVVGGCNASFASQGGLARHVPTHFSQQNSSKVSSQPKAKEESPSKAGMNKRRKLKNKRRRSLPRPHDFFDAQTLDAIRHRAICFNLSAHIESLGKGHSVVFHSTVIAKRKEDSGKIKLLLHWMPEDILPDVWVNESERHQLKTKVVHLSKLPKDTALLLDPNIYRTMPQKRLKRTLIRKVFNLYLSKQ
The next data set has as its target Mutant type EZH2(Y641N) (Homo sapiens (Human), UniProt Q15910, Y641N). As to the kind of experiment: AlphaLISA, mutant type PRC2 complex EZH2(Y641N). It is filed as biochemical. The following applies: read-out: Mutant type EZH2(Y641N) IC50 Nanomoles per Liter.
[5] abbreviates: read-out: Wild-type EZH2 IC50 Nanomoles per Liter.
[6] abbreviates: male, SD, rat, plasma, rats, Intravenous-Dose 4 mg/kg, read-out: Area Curve (AUC, ng/mL · h).
[7] abbreviates: male, SD, rat, plasma; rats, Intravenous-Dose 4 mg/kg; read-out: Half life T1/2, h) (converted).
The mark [8] stands for this setting: male, SD, rat, plasma, rats, Oral-Dose 20 mg/kg, read-out: Area Curve (AUC, ng/mL · h).
Setting [9] is: male, SD, rat, plasma, rats, Oral-Dose 20 mg/kg, read-out: Blood Drug level (Cmax, ng/mL).
Where [10] appears, read: male, SD, rat, plasma, rats, oral 20 mg/kg vs intravenous 4 mg/kg, read-out: Bioavailability (P %).
The mark [11] stands for this setting: male, SD, rat, in vivo, iv, 4 mg/kg.
[12] abbreviates: male, SD, rat, in vivo, po, 20 mg/kg.

The structures appear in SMILES notation. Read-outs that look alike come from different tables or passages of the source.

In general, bioavailability refers to the share of a dose that reaches the circulation, judged against a reference dose that is usually intravenous.

Chain of Mutant type EZH2(A677G) (Q15910 whole entry A677G): as the sequence (Q15910 whole entry) above, with A677G counted along it
Chain of Mutant type EZH2(A677G) (O75530 whole entry partner): as the sequence (O75530 whole entry partner) above
Chain of Mutant type EZH2(A677G) (Q15022 whole entry partner): as the sequence (Q15022 whole entry partner) above
Chain of Mutant type EZH2(A677G) (Q09028 whole entry partner): as the sequence (Q09028 whole entry partner) above
Chain of Mutant type EZH2(A677G) (Q6ZN18 whole entry partner): as the sequence (Q6ZN18 whole entry partner) above
Chain of Mutant type EZH2(Y641N) (Q15910 whole entry Y641N): as the sequence (Q15910 whole entry) above, with Y641N counted along it
Chain of Mutant type EZH2(Y641N) (O75530 whole entry partner): as the sequence (O75530 whole entry partner) above
Chain of Mutant type EZH2(Y641N) (Q15022 whole entry partner): as the sequence (Q15022 whole entry partner) above
Chain of Mutant type EZH2(Y641N) (Q09028 whole entry partner): as the sequence (Q09028 whole entry partner) above
Chain of Mutant type EZH2(Y641N) (Q6ZN18 whole entry partner): as the sequence (Q6ZN18 whole entry partner) above
Description for wild-type EZH2: 25 μL of reaction solution was transferred to a scintillation plate, which was incubated at room temperature for 1 hour (h) and washed with deionized water and 0.1% Tween 20 for three times. A PerkinElmer liquid scintillation/luminescence counter was used to read the value, and GraphPad Prism 5 was used to calculate the median inhibitory concentration (IC50) of the compounds.

For the molecule `CCN(c1cc(-c2ccc3c(c2)C2(CCOCC2)C(=O)N3)cc(C(=O)NCc2c(C)cc(C)[nH]c2=O)c1C)C1CCOCC1` [Example 77, N-((4,6-dimethyl-2-oxo-1,2-dihydropyridin-3-yl)methyl)-3-(ethyl(tetrahydro-2H-pyran-4-yl)amino)-2-methyl-5-(2-oxo-2′,3′,5′,6′-tetrahydrospiro[dihydroindole-3,4′-pyran]-5-yl)benzamide], the IC50 in data set [1] was 8.15 nM; in data set [3], 7.16 nM; on Mutant type EZH2(A677G), 0.67 nM; at wild-type EZH2 (setting [5]) it was 0.91 nM. The inhibition in vivo at 100 mg/kg in data set [2] was found to be 100%.
Take `CCN(c1cc(-c2ccc3c(c2)NC(=O)C32CCOCC2)cc(C(=O)NCc2c(OC)cc(C)[nH]c2=O)c1C)C1CCOCC1OC` (stereo not shown) [Example 112, 3-(Ethyl(3-methoxytetrahydro-2H-pyran-4-yl)amino)-N-((4-methoxy-6-methyl-2-oxo-1,2-dihydropyridin-3-yl)methyl)-2-methyl-5-(2-oxo-2′,3′,5′,6′-tetrahydrospiro[dihydroindole-3,4′-pyran]-6-yl)benzamide]: the AUC worked out at 936 ng·h/mL in data set [4] (setting [6]) and 1190 ng·h/mL in data set [4] (setting [8]). Further, the half-life in data set [4] (setting [7]) was 1.26 h. The Cmax in data set [4] (setting [9]) is 494 ng/mL. In addition, the bioavailability in data set [4] (setting [10]) turned out to be 25.5%. Also, the IC50 is 5.78 nM in data set [1]; 0.82 nM on Mutant type EZH2(Y641F); 0.48 nM on Mutant type EZH2(Y641N); 4.17 nM in data set [3]; 0.51 nM at Mutant type EZH2(A677G); 1.02 nM on wild-type EZH2 (setting [5]).
`CCN(c1cc(-c2ccc3c(c2)NCC32CCN(C)CC2)cc(C(=O)NCc2c(C)cc(C)[nH]c2=O)c1C)C1CCOCC1` [Example 7, N-((4,6-dimethyl-2-oxo-1,2-dihydropyridin-3-yl)methyl)-3-(ethyl(tetrahydro-2H-pyran-4-yl)amino)-2-methyl-5-(1′-methylspiro[dihydroindole-3,4′-piperidine]-6-yl)benzamide]: in data set [4] (rats, Intravenous-Dose 4 mg/kg), the “Area Curve (AUC, ng/mL · h)” value is 937.25 ng·h/mL and the “Half life T1/2, h)” value came to 1.64 h. For the same molecule, in data set [4] (rats, Oral-Dose 20 mg/kg), the “Area Curve (AUC, ng/mL · h)” value was determined as 1435.87 ng·h/mL and the “Blood Drug level (Cmax, ng/mL)” value was 405.10 ng/mL. The “Bioavailability (P %)” value in data set [4] (rats, oral 20 mg/kg vs intravenous 4 mg/kg) is listed as 30.64%. In data set [2] (100 mg/kg), this molecule returned an inhibited tumor growth of 95%.
For the molecule `CCN(c1cc(-c2cc3c(cc2F)C2(CCOCC2)C(=O)N3C)cc(C(=O)NCc2c(C)cc(C)[nH]c2=O)c1C)C1CCOCC1` [Example 12, N-((4,6-dimethyl-2-carbonyl-1,2-dihydropyridin-3-yl)methyl)-3-(ethyl(tetrahydro-2H-pyran-4-yl)amino)-5-(5-fluoro-1-methyl-2-carbonyl-2′,3′,5′,6′-tetrahydrospiro[dihydroindole-3,4′-pyran]-6-yl)-2-methylbenzamide], the AUC was 896 ng·h/mL in data set [4] (setting [6]) and 1510 ng·h/mL in data set [4] (setting [8]). Moreover, the half-life in data set [4] (setting [7]) is 1.37 h. Besides, in data set [4] (setting [9]), the Cmax worked out at 412 ng/mL. The bioavailability in data set [4] (setting [10]) is 33.7%. Further, the IC50 was 0.96 nM in data set [1] and 0.19 nM in data set [3]. Besides, in data set [2], the inhibition in vivo at 100 mg/kg came to 99%.
`CCN(c1cc(-c2ccc3c(c2)NC(=O)C32CCN(C3COC3)CC2)cc(C(=O)NCc2c(C)cc(C)[nH]c2=O)c1C)C1CCOCC1` [Example 84, N-((4,6-dimethyl-2-oxo-1,2-dihydropyridin-3-yl)methyl)-3-(ethyl(tetrahydro-2H-pyran-4-yl)amino)-2-methyl-5-(1′-(oxetan-3-yl)-2-oxospiro[dihydroindole-3,4′-piperidine]-6-yl)benzamide]: the AUC in data set [4] (setting [11]) was found to be 933 ng·h/mL; in data set [4] (setting [12]), 1190 ng·h/mL. In addition, the half-life in data set [4] (setting [11]) was 1.38 h. Moreover, the Cmax in data set [4] (setting [12]) stood at 501 ng/mL. In data set [4] (setting [12]), this molecule showed a bioavailability of 25.4%. For the same molecule, the IC50 in data set [1] was 1.86 nM; at Mutant type EZH2(Y641F), 0.63 nM; on Mutant type EZH2(Y641N) it was 0.25 nM; in data set [3] it was 1.74 nM; on Mutant type EZH2(A677G), 0.47 nM; at wild-type EZH2 (setting [5]), 2.13 nM.
`CCN(c1cc(-c2ccc3c(c2)NCC32CCOCC2)cc(C(=O)NCc2c(OC)cc(C)[nH]c2=O)c1C)C1CCNCC1` [Example 5, 3-(ethyl(piperidin-4-yl)amino)-N-((4-methoxy-6-methyl-2-oxo-1,2-dihydropyridin-3-yl)methyl)-2-methyl-5-(2′,3′,5′,6′-tetrahydrospiro[indoline-3,4′-pyran]-6-yl)benzamide]: the results for the AUC in data set [4] (setting [6]) and in data set [4] (setting [8]) were 912 ng·h/mL and 1570 ng·h/mL, respectively. For the same molecule, the half-life in data set [4] (setting [7]) was 1.05 h. The Cmax in data set [4] (setting [9]) is 453 ng/mL. In data set [4] (setting [10]), the bioavailability is 34.3%. Also, the inhibition in vivo at 100 mg/kg in data set [2] is 98%.
In the case of `CCN(c1cc(-c2ccc3c(c2)NC(=O)C32CCC(F)(F)CC2)cc(C(=O)NCc2c(C)cc(C)[nH]c2=O)c1C)C1CCOCC1` [Example 91, 5-(4,4-difluoro-2′-oxospiro[cyclohexane-1,3′-dihydroindole]-6′-yl)-N-((4,6-dimethyl-2-oxo-1,2-dihydropyridin-3-yl)methyl)-3-(ethyl(tetrahydro-2H-pyran-4-yl)amino)-2-methylbenzamide], the IC50 in data set [1] is 1.87 nM; on Mutant type EZH2(Y641F), 0.49 nM; at Mutant type EZH2(Y641N), 0.24 nM; in data set [3], 1.08 nM; at Mutant type EZH2(A677G), 0.71 nM; at wild-type EZH2 (setting [5]) it was 0.95 nM.
With `CCN(c1cc(-c2ccc3c(c2)N(C(C)C(C)C)CC32CCOCC2)c(Cl)c(C(=O)NCc2c(C)cc(C)[nH]c2=O)c1C)C1CCOCC1` (stereo not shown) [Example 55, 2-chloro-N-((4,6-dimethyl-2-oxo-1,2-dihydropyridin-3-yl)methyl)-5-(ethyl(tetrahydro-2H-pyran-4-yl)amino)-6-methyl-3-(1-(3-methylbutyl-2-yl)-2′,3′,5′,6′-tetrahydrospiro[dihydroindole-3,4′-pyran]-6-yl)benzamide], the AUC in data set [4] (setting [6]) came out at 933 ng·h/mL; in data set [4] (setting [8]), 1270 ng·h/mL. Also, the half-life in data set [4] (setting [7]) was 1.53 h. Besides, in data set [4] (setting [9]), the Cmax was determined as 438 ng/mL. Moreover, the bioavailability in data set [4] (setting [10]) stood at 27.1%. The IC50 was 0.97 nM in data set [1]; 0.58 nM on Mutant type EZH2(Y641F); 0.3 nM at Mutant type EZH2(Y641N); 0.65 nM in data set [3]; 0.42 nM on Mutant type EZH2(A677G); 0.63 nM on wild-type EZH2.
As to `CCN(c1cc(-c2ccc3c(c2)N(C)C(=O)C32CCNCC2)cc(C(=O)NCc2c(OC)cc(C)[nH]c2=O)c1C)C1CCOCC1` [Example 34, 3-(ethyl(tetrahydro-2H-pyran-4-yl)amino)-N-((4-methoxy-6-methyl-2-carbonyl-1,2-dihydropyridin-3-yl)methyl)-2-methyl-5-(1-methyl-2-carbonylspiro[dihydroindole-3,4′-piperidine]-6-yl)benzamide], the AUC in data set [4] (setting [6]) was 966 ng·h/mL; in data set [4] (setting [8]), 1750 ng·h/mL. The half-life in data set [4] (setting [7]) was 1.32 h. Moreover, in data set [4] (setting [9]), the Cmax was determined as 594 ng/mL. In data set [4] (setting [10]), the bioavailability was determined as 36.3%. In addition, in data set [2], the inhibition in vivo at 100 mg/kg is 96%.
With `CCN(c1cc(-c2ccc3c(c2)NC(=O)C32CCOCC2)cc(C(=O)NCc2c(C)cc(C)[nH]c2=O)c1C)C1CCOCC1OC` (stereo not shown) [Example 102, N-((4,6-Dimethyl-2-oxo-1,2-dihydropyridin-3-yl)methyl)-3-((ethyl)(3-methoxytetrahydro-2H-pyran-4-yl)amino)-2-methyl-5-(2-oxo-2′,3′,5′,6′-tetrahydrospiro[dihydroindole-3,4′-pyran]-6-yl)benzamide], the IC50 in data set [1] is 3.87 nM; at Mutant type EZH2(Y641F) it was 0.89 nM; at Mutant type EZH2(Y641N), 0.45 nM; in data set [3] it was 3.45 nM; at Mutant type EZH2(A677G) it was 0.73 nM; on wild-type EZH2 (setting [5]), 0.96 nM.

These data come from patent US12473298B2, “Amide compounds, preparation method therefor, and use thereof in the medical field” (Shanghai Synergy Pharmaceutical Sciences Co., Ltd., priority 2019, dated 2025).
